This is an account of results in patent publication US20220047569A1, “METHOD AND COMPOUND FOR USE, IN TREATING AND/OR PREVENTING NETOSIS” (Jubilant EpiPad LLC, priority 2020, published 2022).

For assay [1], the system named is silica induced lung fibrosis. The assay can be described thus: Silica induced pro-fibrotic lung model. As to conditions: 50 mg/kg PO, BID, day 7 to 11, therapeutic; silica mice. Format: in vivo, C57BL/6 female mice. The procedure:
The instillation of silica into the murine lung results in the development of fibrotic nodules that resemble simple silicotic nodular fibrosis, which develop in humans following some occupational exposures to dust and particulate aerosols. Silica can be delivered to rodents via aerosolization, intratracheal administration or oropharyngeal aspiration. C57BL/6 female mice at an age of 6-8 weeks were instilled with silica particles (2.5 mg/mouse) by non-surgical intratracheal (IT) method. The day of silica instillation was defined as day 0. Test compound was administered twice daily and standard of care was dosed once daily from day 7 to 11 for therapeutic intervention. Animals were monitored and evaluated for their clinical signs and body weight loss. Animals were euthanized on day 11 and the lungs were weighed and biomarkers were analyzed in lung.

Another assay concerns DSS-induced colitis. The assay can be described thus: Dextran sulfate sodium (DSS) induced colitis model. As to conditions: PO BID. Format: in vivo, C57BL/6 male mice. From the text:
Ulcerative colitis (UC) is an intermittent inflammatory bowel disease of the colonic mucosa, with periods of exacerbated symptoms (the active phase of the disease), and periods that are relatively symptom-free (remission phase of disease). Among various chemical induced colitis models, DSS-induced colitis model is widely used because of its simplicity and many similarities with human ulcerative colitis. C57BL/6 male mice at 6-8 weeks of age were purchased from vivo biotech India (under the license from Taconic). The procedures involving the care and use of animals in the study was reviewed and approved by the Institutional Animal Care and Use Committee (IAEC/JDC/2018-161R) prior to conduct. During the study, the care and use of animals was in accordance with the principles outlined in the Guide for the Care and Use of Laboratory Animals, 8th Edition, 2010 (National Research Council) and every effort was made to minimize suffering. The animals were acclimatized for ˜10 days prior to experimental use. Mice were caged with free access to food and fresh water in a temperature-controlled room (22° C.-24° C.) on a 12 h light/dark cycle. On the day of DSS administration (day 0), labelled (using ear punch or any other convenient method) groups of control and experimental mice should be weighed and, if required, average group weight equilibrated so as to eliminate any significant weight difference between groups. Normal control animals were provided with regular drinking water and disease control animals were provided with 2.25% DSS in drinking water for 5 days (Day 1 to Day 5) and next 5 days, both the groups received regular drinking water (Day 6 to Day 10). DSS was replaced with fresh DSS formulation once in 2.5 days. Animals were dosed with Vehicle (0.5% Methyl cellulose in PBS+0.025% Tween-80), Compound 143, PO, bid and Fingolimod, PO, qd. Administration of 2.25% DSS in drinking water induced significant ulcerative colitis leading to ˜5-fold disease induction in mice of disease control group compared to normal control. […]

Molecules are shown by their SMILES.

`N[C@@H]1CCCN(C(=O)c2cc3c4c(c2)nc(-c2cc5cccc(Cl)c5n2CC2CC2)n4CCO3)C1` [Compound 143, (R)-(3-aminopiperidin-1-yl)(2-(7-chloro-1-(cyclopropylmethyl)-1H-indol-2-yl)-3,4-dihydro-5-oxa-1,2a-diazaacenaphthylen-7-yl)methanone]: in assay [1], the Fibronectin level result is “significant decrease”. In addition, the Lung weight result in assay [1] is listed as “significant decrease”. In addition, the “Disease reversal compared to disease control” value with DSS-induced colitis (12.5 mg/kg) is 8.7%; in the assay on DSS-induced colitis (25 mg/kg), 26.6%; in the assay with DSS-induced colitis (50 mg/kg), 45.5%.
